“Also recorded” adds a separate entry of the source.
System: outward potassium currents
Experiment: inside-out whole-cell patch clamp recording of outward potassium currents
Type: cell-based
Procedure: These currents were elicited by a test voltage of+40 mV preceded by a 500 ms long prepulse to−110 mV from a holding potential of−70 mV. […] Current traces were obtained in 5 minute time intervals.
FIG. 14 illustrates a graph showing outward potassium currents with test compounds according to an embodiment of the invention. […] Each test increment followed a 0.5 second long hyperpolarizing prepulse to−110 mV, while keeping the membrane potential at−70 mV between pulses. In the first (left-most) plot, measurements of current were taken while the cell was bathed in a control solution. The cell was then placed in a 10 mM 4-AP bath solution, and the measurements of the second (middle) plot were recorded. The chemical called 4-AP is a pharmacological blocker of these ion channels. The cell was then washed of the 4-AP solution, and the cell was again bathed in the control solution. Measurements were recorded as in the first and second plots, and the results are shown in the third (right-most) plot. For purposes of an inside-out whole cell patch clamp measurement, the control and 4-AP baths represented the intracellular region.
FIG. 15 illustrates a graph showing potassium current amplitude (I) behavior as a function of applied membrane voltages (V) according to an embodiment of the invention. […] Here, the black square points correspond to the left-most plot in FIG. 14, the black circles correspond to the center plot of FIG. 14 showing the reduced potassium current in the presence of 10 mM 4-AP bath solution, and the white circles correspond to measurements after the 4-AP was washed away in the right-most plot of FIG. 14.
This current is approximately 50% lower than in the left and right plots, which correspond to measurements in the control solution before and after drug action, respectively.

Nc1ccncc1 [4-AP]
block of potassium current amplitude (10 mM 4-AP bath solution representing the intracellular region, first cell, FIG. 14): about 50%
current across the membrane relative to current in control solution (10 mM 4-AP bath solution, first cell, current amplitude versus membrane voltage, FIG. 15): less than 50%
reversibility of the effect with wash-out perfusion (first cell, after washing and return to control solution, FIG. 14/15): fully (or at least substantially) reversible; also recorded: reversible process
current lower than in control solution before and after drug action (second cell, in the presence of 4-AP, FIG. 16): approximately 50%
current amplitude after washing compared with control substance (second cell, wash-out, FIG. 17): nearly equal
